From PubChem BioAssay AID330 (DTP/NCI, 2004)
Several values for one entry are separate records, joined by “and”; a condition that tells them apart may be missing. Equal values may be shown once. Inconclusive results and toxic doses are left out. The calls were made as follows: active = survival T/C of 150% or more; inactive = T/C below 125% in these data.

System: P388 leukemia ip, CD2F1 mice, survival T/C
Test: NCI In Vivo Anticancer Drug Screen. Data for tumor model P388 Leukemia (intraperitoneal) in CD2F1 (CDF1) mice
Settings: endpoint: median survival time, higher = longer survival
Method in brief: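 Mice carrying the transplanted tumor received test compound or vehicle. Survival was recorded in each group, and the value is the treated-group measurement divided by that of the vehicle-treated control group.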

[1] = dose: 50.0 mg/kg/injection, schedule: Q01DX009 (ip), vehicle: saline
[2] = dose: 12.5 mg/kg/injection, schedule: Q01DX009 (ip), vehicle: other
[3] = dose: 25.0 mg/kg/injection, schedule: Q01DX009 (ip), vehicle: other
[4] = dose: 100.0 mg/kg/injection, schedule: Q01DX001 (ip), vehicle: Klucel (hydroxypropylcellulose) (HPC)
[5] = dose: 200.0 mg/kg/injection, schedule: Q01DX001 (ip), vehicle: Klucel (hydroxypropylcellulose) (HPC)
[6] = dose: 400.0 mg/kg/injection, schedule: Q01DX001 (ip), vehicle: Klucel (hydroxypropylcellulose) (HPC)
[7] = dose: 50.0 mg/kg/injection, schedule: Q01DX009 (ip), vehicle: saline with Tween-80
[8] = dose: 100.0 mg/kg/injection, schedule: Q01DX009 (ip), vehicle: saline with Tween-80
[9] = dose: 50.0 mg/kg/injection, schedule: Q01DX009 (ip), vehicle: other
[10] = dose: 100.0 mg/kg/injection, schedule: Q01DX009 (ip), vehicle: other
[11] = dose: 200.0 mg/kg/injection, schedule: Q01DX009 (ip), vehicle: other
[12] = dose: 50.0 mg/kg/injection, schedule: Q01DX005 (ip), vehicle: saline with Tween-80
[13] = dose: 100.0 mg/kg/injection, schedule: Q01DX005 (ip), vehicle: saline with Tween-80

Measured: T/C

O=NNc1ccc(Sc2ccc(NN=O)cn2)nc1
inactive: dose: 3.12 mg/kg/injection, schedule: Q01DX009 (ip), vehicle: saline 100 % of control | dose: 6.25 mg/kg/injection, schedule: Q01DX009 (ip), vehicle: saline 107 % of control | dose: 12.5 mg/kg/injection, schedule: Q01DX009 (ip), vehicle: saline 114 % of control | [1] 122 % of control

CCCCCCCCCCCCCCCCCCCC
inactive: dose: 6.25 mg/kg/injection, schedule: Q01DX009 (ip), vehicle: other 112 % of control | [2] 90 % of control | [3] 111 % of control | dose: 50.0 mg/kg/injection, schedule: Q04DX003 (ip), vehicle: other 91 % of control | dose: 100.0 mg/kg/injection, schedule: Q04DX003 (ip), vehicle: other 91 % of control

Cc1csc2ccc(Cl)cc12
inactive: [4] 95 % of control | [5] 107 % of control | [6] 107 % of control

CCn1c(=O)c(C#N)c2n(CC)c3ccccc3n2c1=O
inactive: dose: 3.75 mg/kg/injection, schedule: Q01DX005 (ip), vehicle: saline with Tween-80 100 % of control | dose: 7.5 mg/kg/injection, schedule: Q01DX005 (ip), vehicle: saline with Tween-80 100 % of control | dose: 15.0 mg/kg/injection, schedule: Q01DX005 (ip), vehicle: saline with Tween-80 100 % of control

O=C([O-])CN(CCN(CC(=O)[O-])CC(=O)O)CC(=O)O.[Fe+5].[Na+]
inactive: [7] 91 % of control | [8] 91 % of control | dose: 100.0 mg/kg/injection, schedule: Q04DX003 (ip), vehicle: saline sonified 86 % of control | dose: 200.0 mg/kg/injection, schedule: Q01DX009 (ip), vehicle: saline with Tween-80 91 % of control | dose: 200.0 mg/kg/injection, schedule: Q04DX003 (ip), vehicle: saline sonified 90 % of control

COc1ccc(C(=O)OC2(C)CC(C)(C)N=[N+]2[O-])cc1 (configuration not stated)
inactive: [2] 108 % of control | [3] 113 % of control | [9] 115 % of control | dose: 66.0 mg/kg/injection, schedule: Q01DX009 (ip), vehicle: other 102 % of control | [10] 100 % of control | dose: 150.0 mg/kg/injection, schedule: Q01DX009 (ip), vehicle: other 92 % of control | [11] 113 % of control

COC1(OC)CC=COC1(OC)OC
inactive: dose: 60.0 mg/kg/injection, schedule: Q01DX005 (ip), vehicle: saline 103 % of control | dose: 120.0 mg/kg/injection, schedule: Q01DX005 (ip), vehicle: saline 105 % of control | dose: 240.0 mg/kg/injection, schedule: Q01DX005 (ip), vehicle: saline 114 % of control

COc1ccc2c(NCCCCCCCCNc3c4ccc(Cl)cc4nc4cc(OC)ccc34)c3ccc(Cl)cc3nc2c1
inactive: dose: 0.63 mg/kg/injection, schedule: Q01DX009 (ip), vehicle: other 117 % of control | dose: 1.25 mg/kg/injection, schedule: Q01DX009 (ip), vehicle: other 100 % of control | dose: 2.5 mg/kg/injection, schedule: Q01DX009 (ip), vehicle: other 96 % of control | dose: 5.0 mg/kg/injection, schedule: Q01DX009 (ip), vehicle: other 105 % of control | dose: 10.0 mg/kg/injection, schedule: Q01DX009 (ip), vehicle: other 100 % of control | dose: 20.0 mg/kg/injection, schedule: Q01DX009 (ip), vehicle: other 88 % of control

CC1=C(CO)C(=O)O[C@@H]([C@@H](C)[C@H]2CC[C@H]3[C@@H]4C[C@H]5O[C@]56[C@@H](O)C=CC(=O)[C@]6(C)[C@H]4CC[C@]23C)C1
inactive: dose: 2.5 mg/kg/injection, schedule: Q04DX003 (ip), vehicle: saline 102 % of control and 103 % of control | dose: 5.0 mg/kg/injection, schedule: Q04DX003 (ip), vehicle: saline 100 % of control and 103 % of control | dose: 10.0 mg/kg/injection, schedule: Q04DX003 (ip), vehicle: saline 109 % of control and 110 % of control | dose: 20.0 mg/kg/injection, schedule: Q04DX003 (ip), vehicle: saline 102 % of control and 116 % of control | dose: 40.0 mg/kg/injection, schedule: Q04DX003 (ip), vehicle: saline 109 % of control and 123 % of control

CCCC1OP(=O)(N(CCOC(C)=O)CCOC(C)=O)OCC1CC (configuration not stated)
inactive: dose: 50.0 mg/kg/injection, schedule: Q01DX005 (ip), vehicle: Klucel (hydroxypropylcellulose) (HPC) 96 % of control | dose: 100.0 mg/kg/injection, schedule: Q01DX005 (ip), vehicle: Klucel (hydroxypropylcellulose) (HPC) 98 % of control | dose: 200.0 mg/kg/injection, schedule: Q01DX005 (ip), vehicle: Klucel (hydroxypropylcellulose) (HPC) 96 % of control

CC1CCC2(C)CCC3(C)C(=CCC4C5(C)CCC(Oc6ccc(O)cc6)C(C)(C)C5CCC43C)C2C1C(=O)O (configuration not stated)
inactive: dose: 0.5 mg/kg/injection, schedule: Q01DX005 (ip), vehicle: DMSO 101 % of control | dose: 1.0 mg/kg/injection, schedule: Q01DX005 (ip), vehicle: DMSO 100 % of control | dose: 2.0 mg/kg/injection, schedule: Q01DX005 (ip), vehicle: DMSO 101 % of control | dose: 4.0 mg/kg/injection, schedule: Q01DX005 (ip), vehicle: DMSO 100 % of control

Cn1nnc(-c2nnnn2N)n1
inactive: [1] 95 % of control | dose: 100.0 mg/kg/injection, schedule: Q01DX009 (ip), vehicle: saline 94 % of control | dose: 200.0 mg/kg/injection, schedule: Q01DX009 (ip), vehicle: saline 94 % of control

CN(C)C(=O)Oc1ccc(OC(=O)N(C)C)c2ccccc12
inactive: dose: 6.25 mg/kg/injection, schedule: Q01DX001 (ip), vehicle: Klucel (hydroxypropylcellulose) (HPC) 104 % of control | dose: 12.5 mg/kg/injection, schedule: Q01DX001 (ip), vehicle: Klucel (hydroxypropylcellulose) (HPC) 104 % of control | dose: 25.0 mg/kg/injection, schedule: Q01DX001 (ip), vehicle: Klucel (hydroxypropylcellulose) (HPC) 99 % of control and 100 % of control

OC1(c2ccccc2)CCCCCC1
inactive: dose: 25.0 mg/kg/injection, schedule: Q01DX009 (ip), vehicle: saline with Tween-80 113 % of control | [7] 106 % of control | [8] 106 % of control and 108 % of control

O=C1CC2(CCc3ccccc32)C(=O)N1CN1CCOCC1 (configuration not stated)
inactive: dose: 60.0 mg/kg/injection, schedule: Q01DX005 (ip), vehicle: saline with Tween-80 100 % of control | dose: 120.0 mg/kg/injection, schedule: Q01DX005 (ip), vehicle: saline with Tween-80 104 % of control | dose: 240.0 mg/kg/injection, schedule: Q01DX005 (ip), vehicle: saline with Tween-80 100 % of control

CC1=Nc2ccccc2NC2(C1)C(C1COC(C)(C)O1)OC1OC(C)(C)OC12 (configuration not stated)
inactive: [12] 95 % of control | [13] 99 % of control | dose: 200.0 mg/kg/injection, schedule: Q01DX005 (ip), vehicle: saline with Tween-80 100 % of control

C/C(=N\Nc1ccc([N+](=O)[O-])cc1[N+](=O)[O-])c1ccc(C)cc1
inactive: dose: 50.0 mg/kg/injection, schedule: Q01DX001 (ip), vehicle: Klucel (hydroxypropylcellulose) (HPC) 105 % of control | [4] 107 % of control | [5] 95 % of control | [6] 91 % of control

CC(C)=CC(C(=O)C1CC1)C(CC(=O)C1CC1)C(C)C (configuration not stated)
inactive: dose: 25.0 mg/kg/injection, schedule: Q01DX005 (ip), vehicle: saline with Tween-80 99 % of control | [12] 92 % of control | [13] 92 % of control

O=[N+]([O-])c1cc2c(cc1C1OCCO1)OCO2
inactive: [3] 102 % of control | [9] 100 % of control | [10] 100 % of control | [11] 98 % of control | dose: 400.0 mg/kg/injection, schedule: Q01DX009 (ip), vehicle: other 98 % of control

N#CCCCN1C(=O)c2ccccc2C1=O
inactive: dose: 50.0 mg/kg/injection, schedule: Q01DX009 (ip), vehicle: Klucel (hydroxypropylcellulose) (HPC) 102 % of control | dose: 100.0 mg/kg/injection, schedule: Q01DX009 (ip), vehicle: Klucel (hydroxypropylcellulose) (HPC) 104 % of control

CC(=O)Oc1c(C)c(OC(C)=O)c2c(c1C(C)=O)OC1CC(=O)C(C(C)=O)=C(O)C21C (configuration not stated)
inactive: dose: 6.25 mg/kg/injection, schedule: Q01DX009 (ip), vehicle: gum acacia 101 % of control and 97 % of control | dose: 12.5 mg/kg/injection, schedule: Q01DX009 (ip), vehicle: gum acacia 100 % of control and 102 % of control | dose: 25.0 mg/kg/injection, schedule: Q01DX009 (ip), vehicle: gum acacia 102 % of control | dose: 50.0 mg/kg/injection, schedule: Q01DX009 (ip), vehicle: gum acacia 101 % of control and 104 % of control | dose: 100.0 mg/kg/injection, schedule: Q01DX009 (ip), vehicle: gum acacia 94 % of control
